Measured values published in US20090143441A1, “Combination therapies of Thiazolidinedione analogues” (priority 2006, published 2009).
Entries after “also recorded” stand apart in the source; their conditions may differ.

The molecules below were run against T1, PPARγ (Homo sapiens, UniProt P37231) (assay: Commercial PPARγ binding assay (Invitrogen, PPAR-LBD/Fluormone PPAR Green complex)). Conditions: compound at 1 μM; average (SEM) of three experiments in quadruplicate.
T1 construct: purchased Invitrogen Corporation, Carlsbad, Calif
T1 sequence (P37231 238-503 limits assumed): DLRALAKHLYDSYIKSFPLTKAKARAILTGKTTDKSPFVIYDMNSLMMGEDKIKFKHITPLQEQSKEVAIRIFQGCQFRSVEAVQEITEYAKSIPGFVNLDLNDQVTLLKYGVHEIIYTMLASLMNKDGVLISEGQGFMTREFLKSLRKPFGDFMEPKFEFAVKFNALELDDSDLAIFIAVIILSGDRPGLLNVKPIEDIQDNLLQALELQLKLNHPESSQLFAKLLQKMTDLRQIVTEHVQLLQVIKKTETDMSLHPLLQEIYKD
Experimental: The ability of several exemplary compounds of the present invention, shown in Table A, to bind to PPARγ was measured using a commercial binding assay (Invitrogen Corporation, Carlsbad, Calif.) that measures the test compounds ability to bind with PPAR-LBD/Fluormone PPAR Green complex. These assays were performed on three occasions with each assay using four separate wells (quadruplicate) at each concentration of tested compound. The data in Table B are average and SEM of three experiments, each of which were performed in quadruplicate on separate days. […] Compounds were added at the concentrations shown, which range from 0.1-100 micromolar.

How did the “PPARγ ligand binding (Fluormone displacement signal)” value (shortened to “PPARγ ligand binding”) turn out when `CCc1ccc(CCOc2ccc(CC3(C)SC(=O)NC3=O)cc2)nc1` (stereo not drawn) [Compound 4] was run?
The value was 234 (11).

For `CCc1ccc(C(COc2ccc(CC3SC(=O)NC3=O)cc2)CC(=O)OC)nc1` (stereo not drawn) [Compound 12], which “Activation of PPARγ” value is on record?
The value was 198 (6).

`CCc1ccc([C@@H](O)COc2ccc(CC3SC(=O)NC3=O)cc2)nc1` (stereo partly drawn) [Compound 2] was tested. Which “PPARγ ligand binding” value did it give?
The value was 238 (12).

`CCc1ccc(C(=O)COc2ccc(CC3SC(=O)NC3=O)cc2)nc1` (stereo not drawn) [Compound 1] was tested. Which “PPARγ ligand binding” value did it give?
Its value is 223 (12).

How did the “PPARγ ligand binding” value turn out when `CCc1ccc(C(O)COc2ccc(CC3(C)SC(=O)NC3=O)cc2)nc1` (stereo not drawn) [Compound 5] was run?
The value was 228 (9).

With `CCc1ccc(C(=CC(=O)OC)COc2ccc(CC3SC(=O)NC3=O)cc2)nc1` (stereo not drawn) [Compound 3] as the molecule, how does the “PPARγ ligand binding” value read?
The value was 203 (15).

`CCc1ccc(C(=CCO)COc2ccc(CC3SC(=O)NC3=O)cc2)nc1` (stereo not drawn) [Compound 13] was tested. Which “Activation of PPARγ” value did it give?
Its value is 229 (20).

Same assay, conditions: compound at 3 μM; average (SEM) of three experiments in quadruplicate

With `CCc1ccc(CCOc2ccc(CC3(C)SC(=O)NC3=O)cc2)nc1` (stereo not drawn) [Compound 4] as the molecule, how does the “PPARγ ligand binding” value read?
Its value is 224 (15).

For `CCc1ccc(C(COc2ccc(CC3SC(=O)NC3=O)cc2)CC(=O)OC)nc1` (stereo not drawn) [Compound 12], which “PPARγ ligand binding” value is on record?
The value was 155 (8).

`CCc1ccc([C@@H](O)COc2ccc(CC3SC(=O)NC3=O)cc2)nc1` (stereo partly drawn) [Compound 2] was tested. Which “Activation of PPARγ” value did it give?
The value was 236 (13).

With `CCc1ccc(C(=O)COc2ccc(CC3SC(=O)NC3=O)cc2)nc1` (stereo not drawn) [Compound 1] as the molecule, how does the “Activation of PPARγ” value read?
Its value is 228 (6).

Which “PPARγ ligand binding” value does the source give for `CCc1ccc(C(O)COc2ccc(CC3(C)SC(=O)NC3=O)cc2)nc1` (stereo not drawn) [Compound 5] here?
Its value is 226 (8).

`CCc1ccc(C(=CC(=O)OC)COc2ccc(CC3SC(=O)NC3=O)cc2)nc1` (stereo not drawn) [Compound 3] was tested. Which “Activation of PPARγ” value did it give?
The value was 185 (17).

With `CCc1ccc(C(=CCO)COc2ccc(CC3SC(=O)NC3=O)cc2)nc1` (stereo not drawn) [Compound 13] as the molecule, how does the “Activation of PPARγ” value read?
The value was 230 (13).

Same assay, conditions: compound at 10 μM; average (SEM) of three experiments in quadruplicate

With `CCc1ccc(CCOc2ccc(CC3(C)SC(=O)NC3=O)cc2)nc1` (stereo not drawn) [Compound 4] as the molecule, how does the “PPARγ ligand binding” value read?
Its value is 200 (8).

`CCc1ccc(C(COc2ccc(CC3SC(=O)NC3=O)cc2)CC(=O)OC)nc1` (stereo not drawn) [Compound 12] was tested. Which “PPARγ ligand binding” value did it give?
The value was 112 (12).

How did the “PPARγ ligand binding” value turn out when `CCc1ccc([C@@H](O)COc2ccc(CC3SC(=O)NC3=O)cc2)nc1` (stereo partly drawn) [Compound 2] was run?
The value was 223 (11).

With `CCc1ccc(C(=O)COc2ccc(CC3SC(=O)NC3=O)cc2)nc1` (stereo not drawn) [Compound 1] as the molecule, how does the “Activation of PPARγ” value read?
Its value is 207 (13).

With `CCc1ccc(C(O)COc2ccc(CC3(C)SC(=O)NC3=O)cc2)nc1` (stereo not drawn) [Compound 5] as the molecule, how does the “PPARγ ligand binding” value read?
The value was 212 (11).

How did the “Activation of PPARγ” value turn out when `CCc1ccc(C(=CC(=O)OC)COc2ccc(CC3SC(=O)NC3=O)cc2)nc1` (stereo not drawn) [Compound 3] was run?
Its value is 134 (1).

How did the “PPARγ ligand binding” value turn out when `CCc1ccc(C(=CCO)COc2ccc(CC3SC(=O)NC3=O)cc2)nc1` (stereo not drawn) [Compound 13] was run?
Its value is 204 (12).

Same assay, conditions: compound at 50 μM; average (SEM) of three experiments in quadruplicate

Which “Activation of PPARγ” value does the source give for `CCc1ccc(CCOc2ccc(CC3(C)SC(=O)NC3=O)cc2)nc1` (stereo not drawn) [Compound 4] here?
Its value is 122 (21).

Which “Activation of PPARγ” value does the source give for `CCc1ccc(C(COc2ccc(CC3SC(=O)NC3=O)cc2)CC(=O)OC)nc1` (stereo not drawn) [Compound 12] here?
The value was 80 (2).

`CCc1ccc([C@@H](O)COc2ccc(CC3SC(=O)NC3=O)cc2)nc1` (stereo partly drawn) [Compound 2] was tested. Which “PPARγ ligand binding” value did it give?
The value was 162 (8).

For `CCc1ccc(C(=O)COc2ccc(CC3SC(=O)NC3=O)cc2)nc1` (stereo not drawn) [Compound 1], which “Activation of PPARγ” value is on record?
Its value is 174 (28).

How did the “PPARγ ligand binding” value turn out when `CCc1ccc(C(O)COc2ccc(CC3(C)SC(=O)NC3=O)cc2)nc1` (stereo not drawn) [Compound 5] was run?
Its value is 132 (12).

How did the “Activation of PPARγ” value turn out when `CCc1ccc(C(=CC(=O)OC)COc2ccc(CC3SC(=O)NC3=O)cc2)nc1` (stereo not drawn) [Compound 3] was run?
The value was 88 (6).

`CCc1ccc(C(=CCO)COc2ccc(CC3SC(=O)NC3=O)cc2)nc1` (stereo not drawn) [Compound 13] was tested. Which “Activation of PPARγ” value did it give?
The value was 148 (23).

Same assay, conditions: compound at 100 μM; average (SEM) of three experiments in quadruplicate

For `CCc1ccc(CCOc2ccc(CC3(C)SC(=O)NC3=O)cc2)nc1` (stereo not drawn) [Compound 4], which “PPARγ ligand binding” value is on record?
Its value is 91 (11).

`CCc1ccc(C(COc2ccc(CC3SC(=O)NC3=O)cc2)CC(=O)OC)nc1` (stereo not drawn) [Compound 12] was tested. Which “PPARγ ligand binding” value did it give?
The value was 85 (3).

Which “PPARγ ligand binding” value does the source give for `CCc1ccc([C@@H](O)COc2ccc(CC3SC(=O)NC3=O)cc2)nc1` (stereo partly drawn) [Compound 2] here?
The value was 136 (11).

With `CCc1ccc(C(=O)COc2ccc(CC3SC(=O)NC3=O)cc2)nc1` (stereo not drawn) [Compound 1] as the molecule, how does the “Activation of PPARγ” value read?
Its value is 170 (35).

With `CCc1ccc(C(O)COc2ccc(CC3(C)SC(=O)NC3=O)cc2)nc1` (stereo not drawn) [Compound 5] as the molecule, how does the “PPARγ ligand binding” value read?
The value was 106 (7).

With `CCc1ccc(C(=CC(=O)OC)COc2ccc(CC3SC(=O)NC3=O)cc2)nc1` (stereo not drawn) [Compound 3] as the molecule, how does the “PPARγ ligand binding” value read?
The value was 77 (7).

For `CCc1ccc(C(=CCO)COc2ccc(CC3SC(=O)NC3=O)cc2)nc1` (stereo not drawn) [Compound 13], which “Activation of PPARγ” value is on record?
The value was 108 (5).

Same assay, conditions: compound at .1 μM; average (SEM) of three experiments in quadruplicate

With `CCc1ccc(CCOc2ccc(CC3(C)SC(=O)NC3=O)cc2)nc1` (stereo not drawn) [Compound 4] as the molecule, how does the “Activation of PPARγ” value read?
The value was 236 (13).

With `CCc1ccc(C(COc2ccc(CC3SC(=O)NC3=O)cc2)CC(=O)OC)nc1` (stereo not drawn) [Compound 12] as the molecule, how does the “PPARγ ligand binding” value read?
The value was 243 (3).

Which “PPARγ ligand binding” value does the source give for `CCc1ccc([C@@H](O)COc2ccc(CC3SC(=O)NC3=O)cc2)nc1` (stereo partly drawn) [Compound 2] here?
Its value is 231 (15).

Which “Activation of PPARγ” value does the source give for `CCc1ccc(C(=O)COc2ccc(CC3SC(=O)NC3=O)cc2)nc1` (stereo not drawn) [Compound 1] here?
Its value is 227 (1).

How did the “PPARγ ligand binding” value turn out when `CCc1ccc(C(O)COc2ccc(CC3(C)SC(=O)NC3=O)cc2)nc1` (stereo not drawn) [Compound 5] was run?
The value was 235 (8).

How did the “Activation of PPARγ” value turn out when `CCc1ccc(C(=CC(=O)OC)COc2ccc(CC3SC(=O)NC3=O)cc2)nc1` (stereo not drawn) [Compound 3] was run?
The value was 226 (17).

For `CCc1ccc(C(=CCO)COc2ccc(CC3SC(=O)NC3=O)cc2)nc1` (stereo not drawn) [Compound 13], which “PPARγ ligand binding” value is on record?
Its value is 244 (9).

Same assay, conditions: compound at .3 μM; average (SEM) of three experiments in quadruplicate

`CCc1ccc(CCOc2ccc(CC3(C)SC(=O)NC3=O)cc2)nc1` (stereo not drawn) [Compound 4] was tested. Which “Activation of PPARγ” value did it give?
Its value is 230 (14).

`CCc1ccc(C(COc2ccc(CC3SC(=O)NC3=O)cc2)CC(=O)OC)nc1` (stereo not drawn) [Compound 12] was tested. Which “Activation of PPARγ” value did it give?
The value was 222 (4).

`CCc1ccc([C@@H](O)COc2ccc(CC3SC(=O)NC3=O)cc2)nc1` (stereo partly drawn) [Compound 2] was tested. Which “PPARγ ligand binding” value did it give?
Its value is 233 (15).

With `CCc1ccc(C(=O)COc2ccc(CC3SC(=O)NC3=O)cc2)nc1` (stereo not drawn) [Compound 1] as the molecule, how does the “PPARγ ligand binding” value read?
Its value is 232 (8).

How did the “PPARγ ligand binding” value turn out when `CCc1ccc(C(O)COc2ccc(CC3(C)SC(=O)NC3=O)cc2)nc1` (stereo not drawn) [Compound 5] was run?
Its value is 230 (10).

Which “PPARγ ligand binding” value does the source give for `CCc1ccc(C(=CC(=O)OC)COc2ccc(CC3SC(=O)NC3=O)cc2)nc1` (stereo not drawn) [Compound 3] here?
Its value is 221 (10).

With `CCc1ccc(C(=CCO)COc2ccc(CC3SC(=O)NC3=O)cc2)nc1` (stereo not drawn) [Compound 13] as the molecule, how does the “PPARγ ligand binding” value read?
The value was 243 (10).

Same assay, conditions: summary of FIG. 1 and Table B

`CCc1ccc([C@@H](O)COc2ccc(CC3SC(=O)NC3=O)cc2)nc1` (stereo partly drawn) [Compound 2] was tested. Which “Binding to PPARγ (in words)” value did it give?
The value was “particularly poor binders to PPARγ; also recorded: PPARγ-sparing compound”.

Which “Binding to PPARγ (in words)” value does the source give for `CCc1ccc(C(=O)COc2ccc(CC3SC(=O)NC3=O)cc2)nc1` (stereo not drawn) [Compound 1] here?
Its value is “particularly poor binders to PPARγ”.

These molecules were tested on normal male Sprague-Dawley rats with Medrol-induced hypertension (assay: Prevention of Medrol-induced hypertension, mean blood pressure by direct femoral arterial cannulation). Conditions: after a 6 hour fast on day 8; daily dosing, Compound 1 40 mg/kg/day, Medrol 20 mg/kg/day; N=9; * p<0.05 less than Medrol-treated rats.
Format: in vivo
Experimental: Hypertension was induced in normal male Sprague-Dawley rats by daily dosing with the glucocorticoid methylprednisolone (Medrol) for 8 days. Separate groups of rats received the vehicle (1% carboxymethylcellulose/0.01% Tween 20) by oral gavage and some of both the vehicle-treated and Medrol-treated rats also received daily doses of compound 1 as shown in Table C. Mean blood pressure was measured by direct femoral arterial cannulation under fed conditions on day 7 and after a 6 hour fast on day 8. The data are mean and (SEM) mean blood pressure obtained by direct cannulation. N=9; * p<0.05 less than blood pressure in Medrol-treated rats.

How did the “Mean blood pressure, Fasted” value turn out when `CCc1ccc(C(=O)COc2ccc(CC3SC(=O)NC3=O)cc2)nc1` (stereo not drawn) [Compound 1] was run?
Its value is 108.

Same assay, conditions: fed conditions on day 7; daily dosing, Compound 1 40 mg/kg/day, Medrol 20 mg/kg/day; N=9; * p<0.05 less than Medrol-treated rats

How did the “Mean blood pressure, Fed” value turn out when `CCc1ccc(C(=O)COc2ccc(CC3SC(=O)NC3=O)cc2)nc1` (stereo not drawn) [Compound 1] was run?
Its value is 108.

Same assay, conditions: hypertension generated by treatment with a glucocorticoid; FIG. 2 and Table C

With `CCc1ccc(C(=O)COc2ccc(CC3SC(=O)NC3=O)cc2)nc1` (stereo not drawn) [Compound 1] as the molecule, how does the “Antihypertensive action (in words)” value read?
The value was “unexpected antihypertensive action; also recorded: significantly lowered blood pressure”.
